{"source": "patent US20240150334A1", "about": "“HSD17B13 INHIBITORS AND/OR DEGRADERS” (Pfizer Inc., priority 2022, published 2024)", "key": {"wild type human HSD17B13": {"target": "wild type human HSD17B13 (Homo sapiens (Human), UniProt Q7Z5P4)", "sequence (Q7Z5P4 20-300)": "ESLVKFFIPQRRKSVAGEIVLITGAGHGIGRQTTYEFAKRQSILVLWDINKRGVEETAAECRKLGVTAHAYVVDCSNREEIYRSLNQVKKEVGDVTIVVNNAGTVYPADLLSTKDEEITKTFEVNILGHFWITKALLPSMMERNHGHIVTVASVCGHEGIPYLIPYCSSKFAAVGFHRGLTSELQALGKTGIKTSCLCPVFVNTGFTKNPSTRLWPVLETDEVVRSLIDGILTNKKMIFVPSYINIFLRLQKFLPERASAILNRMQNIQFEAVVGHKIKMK", "experiment": "HEK_Beta-Est LCMS_IC50_Tekcel, whole-cell HEK-HSD17B13 inhibition assay, estrone production by LCMS", "format": "cell-based", "conditions": "geometric mean, HEK cells stably expressing wild type human HSD17B13, 25 μM FAC beta-estradiol, read-out: HEK_Beta-Est LCMS_IC50—Tekcel GMean IC50", "summary_of_the_method": "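Readout was LCMS quantitation of estrone made from beta-estradiol with NAD+ as cofactor. Whole HEK-HSD17B13 cells were given compound for 1 hour, then the reaction for 2 hours, both at 37° C. Product area ratios were normalized to vehicle controls as zero percent effect.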"}, "HSD17B13 enzyme": {"target": "HSD17B13 enzyme (Homo sapiens (Human), UniProt Q7Z5P4)", "sequence (Q7Z5P4 20-300)": "as above", "experiment": "hHSD17B13 IC50 Assay (FAC beta-estradiol), purified protein enzyme activity assay with NAD(P)H-Glo luciferase readout", "format": "biochemical", "conditions": "geometric mean, 12 μM FAC beta-estradiol, 500 μM NAD+, read-out: hHSD17B13_IC50 GMean IC50", "summary_of_the_method": "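Purified human HSD17B13 (30 nM FAC) incubated with compound, beta-estradiol and NAD+ for 2 h at room temperature in the dark. NADH formation was detected by NAD(P)H-Glo luminescence after 1 h. RLUs normalized to uninhibited enzyme (vehicle) as zero effect.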"}}}
{"smiles": "O=C(NC[C@H]1CC[C@H](N2Cc3cc(Cl)ccc3C2=O)CC1)c1cc(F)c(O)cc1F", "note": "[Example 186, N-{[(1r,4r)-4-(5-chloro-1-oxo-1,3-dihydro-2H-isoindol-2-yl)cyclohexyl]methyl}-2,5-difluoro-4-hydroxybenzamide]", "values": [{"measurement": "IC50", "setting": "wild type human HSD17B13", "value": 480, "unit": "nM"}, {"measurement": "IC50", "setting": "HSD17B13 enzyme", "value": 15, "unit": "nM"}]}
{"smiles": "O=C(NC[C@H]1CC[C@H](n2cc3cc(Cl)ncc3n2)CC1)c1cc(F)c(O)c(F)c1", "note": "[Example 187, N-{[(1r,4r)-4-(5-chloro-2H-pyrazolo[3,4-c]pyridin-2-yl)cyclohexyl]methyl}-3,5-difluoro-4-hydroxybenzamide]", "values": [{"measurement": "IC50", "setting": "wild type human HSD17B13", "value": 400, "unit": "nM"}, {"measurement": "IC50", "setting": "HSD17B13 enzyme", "value": 10, "unit": "nM"}]}
{"smiles": "O=C(NC[C@H]1CC[C@H](n2cc3cnc(-c4ccncc4)cc3n2)CC1)c1cc(F)c(O)c(F)c1", "note": "[Example 188, 3,5-difluoro-4-hydroxy-N-({(1r,4r)-4-[6-(pyridin-4-yl)-2H-pyrazolo[4,3-c]pyridin-2-yl]cyclohexyl}methyl) benzamide]", "values": [{"measurement": "IC50", "setting": "wild type human HSD17B13", "value": 240, "unit": "nM"}, {"measurement": "IC50", "setting": "HSD17B13 enzyme", "value": 11, "unit": "nM"}]}
{"smiles": "O=C(NC[C@]12CC[C@](c3noc(-c4cccc(OS(=O)(=O)F)c4)n3)(CC1)CC2)c1cc(F)c(O)c(F)c1", "note": "[Example 190, 3-(3-{4-[(3,5-difluoro-4-hydroxybenzamido)methyl]bicyclo[2.2.2]octan-1-yl}-1,2,4-oxadiazol-5-yl) phenyl sulfurofluoridate]", "values": [{"measurement": "IC50", "setting": "wild type human HSD17B13", "value": 420, "unit": "nM"}, {"measurement": "IC50", "setting": "HSD17B13 enzyme", "value": 8.6, "unit": "nM"}]}
{"smiles": "O=C(NC[C@]12CC[C@](c3nc(-c4cnc(C(F)(F)F)cn4)no3)(CC1)CC2)c1cc(F)c(O)c(F)c1", "note": "[Example 191, 3,5-difluoro-4-hydroxy-N-[(4-{3-[5-(trifluoromethyl)pyrazin-2-yl]-1,2,4-oxadiazol-5-yl}bicyclo[2.2.2]octan-1-yl)methyl]benzamide]", "values": [{"measurement": "IC50", "setting": "wild type human HSD17B13", "value": 120, "unit": "nM"}, {"measurement": "IC50", "setting": "HSD17B13 enzyme", "value": 9.7, "unit": "nM"}]}
{"smiles": "O=C(NC[C@]12CC[C@](n3cc4cc(C(F)(F)F)ccc4n3)(CC1)CC2)c1cc(F)c(O)c(F)c1F", "note": "[Example 193, 2,3,5-trifluoro-4-hydroxy-N-({4-[5-(trifluoromethyl)-2H-indazol-2-yl]bicyclo [2.2.2]octan-1-yl}methyl)benzamide]", "values": [{"measurement": "IC50", "setting": "wild type human HSD17B13", "value": 440, "unit": "nM"}, {"measurement": "IC50", "setting": "HSD17B13 enzyme", "value": 22, "unit": "nM"}]}
{"smiles": "O=C(NC[C@]12CC[C@](c3nc(-c4ccc(C(F)(F)F)nc4)no3)(CC1)CC2)c1cc(F)c(O)cc1F", "note": "[Example 195, 2,5-difluoro-4-hydroxy-N-[(4-{3-[6-(trifluoromethyl)pyridin-3-yl]-1,2,4-oxadiazol-5-yl}bicyclo [2.2.2]octan-1-yl)methyl]benzamide]", "values": [{"measurement": "IC50", "setting": "wild type human HSD17B13", "value": 390, "unit": "nM"}, {"measurement": "IC50", "setting": "HSD17B13 enzyme", "value": 16, "unit": "nM"}]}
{"smiles": "O=C(NC[C@]12CC[C@](c3nc(-c4ccc(C(F)(F)F)nc4)no3)(CC1)CC2)c1cc(F)c(O)c(F)c1F", "note": "[Example 196, 2,3,5-trifluoro-4-hydroxy-N-[(4-{3-[6-(trifluoromethyl)pyridin-3-yl]-1,2,4-oxadiazol-5-yl}bicyclo[2.2.2]octan-1-yl)methyl]benzamide]", "values": [{"measurement": "IC50", "setting": "wild type human HSD17B13", "value": 340, "unit": "nM"}, {"measurement": "IC50", "setting": "HSD17B13 enzyme", "value": 12, "unit": "nM"}]}
{"smiles": "O=C(NC[C@H]1CC[C@H](c2nc(-c3ccc(C(F)(F)F)nc3)no2)CC1)c1cc(F)c(O)cc1F", "note": "[Example 197, 2,5-difluoro-4-hydroxy-N-{[(1r,4r)-4-{3-[6-(trifluoromethyl)pyridin-3-yl]-1,2,4-oxadiazol-5-yl}cyclohexyl]methyl} benzamide]", "values": [{"measurement": "IC50", "setting": "wild type human HSD17B13", "value": 470, "unit": "nM"}, {"measurement": "IC50", "setting": "HSD17B13 enzyme", "value": 39, "unit": "nM"}]}
{"smiles": "O=C(NC[C@H]1CC[C@H](c2nc(-c3ncc(C(F)(F)F)cn3)no2)CC1)c1cc(F)c(O)cc1F", "note": "[Example 198, 2,5-difluoro-4-hydroxy-N-{[(1r,4r)-4-{3-[5-(trifluoromethyl)pyrimidin-2-yl]-1,2,4-oxadiazol-5-yl}cyclohexyl]methyl} benzamide]", "values": [{"measurement": "IC50", "setting": "wild type human HSD17B13", "value": 310, "unit": "nM"}, {"measurement": "IC50", "setting": "HSD17B13 enzyme", "value": 6.5, "unit": "nM"}]}
{"smiles": "O=C(NC[C@H]1CC[C@H](n2cc3cc(-c4cccnc4)ncc3n2)CC1)c1cc(F)c(O)c(F)c1", "note": "[Example 199, 3,5-difluoro-4-hydroxy-N-({(1r,4r)-4-[5-(pyridin-3-yl)-2H-pyrazolo[3,4-c]pyridin-2-yl]cyclohexyl}methyl) benzamide]", "values": [{"measurement": "IC50", "setting": "wild type human HSD17B13", "value": 370, "unit": "nM"}, {"measurement": "IC50", "setting": "HSD17B13 enzyme", "value": 8.8, "unit": "nM"}]}
{"smiles": "Cn1cc(-c2cc3cn([C@H]4CC[C@H](CNC(=O)c5cc(F)c(O)c(F)c5)CC4)nc3cn2)cn1", "note": "[Example 200, 3,5-difluoro-4-hydroxy-N-({(1r,4r)-4-[5-(1-methyl-1H-pyrazol-4-yl)-2H-pyrazolo[3,4-c]pyridin-2-yl]cyclohexyl}methyl) benzamide]", "values": [{"measurement": "IC50", "setting": "wild type human HSD17B13", "value": 350, "unit": "nM"}, {"measurement": "IC50", "setting": "HSD17B13 enzyme", "value": 10, "unit": "nM"}]}
{"smiles": "O=C(NC[C@]12CC[C@](n3cc4ccccc4n3)(CC1)CC2)c1cc(F)c(O)c(F)c1", "note": "[Example 202, 3,5-difluoro-4-hydroxy-N-{[4-(2H-indazol-2-yl)bicyclo [2.2.2]octan-1-yl]methyl}benzamide]", "values": [{"measurement": "IC50", "setting": "wild type human HSD17B13", "value": 220, "unit": "nM"}, {"measurement": "IC50", "setting": "HSD17B13 enzyme", "value": 49, "unit": "nM"}]}
{"smiles": "O=C(NC[C@H]1CC[C@H](c2nc(-c3ccc(C(F)(F)F)cn3)no2)CC1)c1cc(F)c(O)c(F)c1F", "note": "[Example 210, 2,3,5-trifluoro-4-hydroxy-N-{[(1r,4r)-4-{3-[5-(trifluoromethyl)pyridin-2-yl]-1,2,4-oxadiazol-5-yl}cyclohexyl]methyl}benzamide]", "values": [{"measurement": "IC50", "setting": "wild type human HSD17B13", "value": 450, "unit": "nM"}, {"measurement": "IC50", "setting": "HSD17B13 enzyme", "value": 18, "unit": "nM"}]}
{"smiles": "Cc1ccc(-c2noc([C@H]3CC[C@H](CNC(=O)c4cc(F)c(O)c(F)c4)CC3)n2)nn1", "note": "[Example 211, 3,5-difluoro-4-hydroxy-N-({(1r,4r)-4-[3-(6-methyl-pyridazin-3-yl)-1,2,4-oxadiazol-5-yl]cyclohexyl}methyl) benzamide]", "values": [{"measurement": "IC50", "setting": "wild type human HSD17B13", "value": 2700, "unit": "nM"}, {"measurement": "IC50", "setting": "HSD17B13 enzyme", "value": 15, "unit": "nM"}]}
{"smiles": "Cc1ccc(-c2noc([C@H]3CC[C@H](CNC(=O)c4cc(F)c(O)c(F)c4F)CC3)n2)nn1", "note": "[Example 212, 2,3,5-trifluoro-4-hydroxy-N-({(1r,4r)-4-[3-(6-methylpyridazin-3-yl)-1,2,4-oxadiazol-5-yl]cyclohexyl}methyl) benzamide]", "values": [{"measurement": "IC50", "setting": "wild type human HSD17B13", "value": 2300, "unit": "nM"}, {"measurement": "IC50", "setting": "HSD17B13 enzyme", "value": 26, "unit": "nM"}]}
